According to US20140161729A1, “COFLUORONS AND METHODS OF MAKING AND USING THEM” (CORNELL UNIVERSITY, priority 2011, published 2014):
One block for each compound: values may come before it.

How the values were obtained:
[1] = Fluorescence measurements of cofluoron models (linker element monomers and their multimers with boronic acids); type: physicochemical; conditions: for fluorescence change on addition to linker element SL1 (2-hydroxy-3-naphthalenecarboxamide) / fluorescence change on addition to linker element SL3 (gallic acid ethanolamide): boronic acid 300 μM; for fluorescence change on addition to linker element SL1 (2-hydroxy-3-naphthalenecarboxamide): SL1 100 μM, FIG. 6A; for fluorescence change on addition to linker element SL3 (gallic acid ethanolamide): SL3 100 μM, FIG. 6B
human mast cell line = assay: Intracellular fluorescence of cofluorons (microscopy under UV excitation); type: cell-based; conditions: 100 μM (each) cofluoron monomer
Protocol: Human mast cell β2-tryptase containing cells, grown in standard media, were incubated with 100 μM monomer 1 for 15 minutes at room temperature, followed by the addition of 100 μM monomer 2. Stock concentrations of cofluorons, 50 mM in DMSO, were diluted in media immediately before use. For localization studies, 10.5% PEG and 0.0005% berberine were added to costain mast cell granules. Fluorescent signals were detected using an inverted CKX41 Olympus microscope under UV excitation and an 100× oil immersion lens. Images were recorded using an Olympus DP20 digital camera.

[2] = Fluorescence measurements of cofluoron monomers and multimers without target; type: physicochemical; conditions: for maximum fluorescence emission / wavelength of maximum emission: 100 μM (each), 0.1M phosphate pH 7.4, 100 μM EDTA, excited at 300 nM
Protocol: The fluorescence properties of cofluorons were measured in 0.1M HEPES or 0.1M phosphate buffer at pH 7.4 in 96- or 384-well black plates using a Molecular Dynamics SpectraMax M5 plate reader. Cofluoron samples were excited at discrete wavelengths and the fluorescence emission was scanned across a range of wavelengths (between 400 and 750 nm). The fluorescence properties of individual cofluoron monomers, as well as the fluorescent properties of cofluoron multimers formed by association of different combinations of cofluoron monomers, were tested and compared.
Fluorescence emission spectra were recorded for cofluoron monomers T147 and T27F individually at a concentration of 100 μM as well as in combination where each cofluoron monomer was at a concentration of 100 μM, in a 0.1M phosphate buffer at pH 7.4 containing 100 μM EDTA. The samples were excited at 300 nM and fluorescence emissions were measured between 300-750 nm on a Spectramax M5 spectrofluorometer. […] The fluorescence emission was enhanced to 4062 RFU and the emission wavelength shifted to 420 nm when the two cofluoron monomers were combined (See FIG. 19).
FIGS. 21 through 34 show the results of fluorescent measurements on the monomers T27 or T27F containing a dihydroxy moiety and multimers formed by mixing the dihydroxy compound with various monomer binding partners containing a boronic acid. These multimers have increased affinity for human mast cell β2-tryptase as compared to the monomers. The fluorescence properties of cofluorons were measured 0.1M phosphate buffer at pH 7.4 containing either 100 or 200 μM EDTA, in 96- or 384-well black plates using a Molecular Dynamics SpectraMax M5 plate reader. Cofluoron samples were excited at discrete wavelengths and the fluorescence emission was scanned across a range of wavelengths (between 400 and 750 nm).

Tryptase = Tryptase (Homo sapiens, UniProt P20231); assay: Fluorescence of cofluoron pairs in the presence or absence of Tryptase; type: binding; conditions: phosphate buffer pH 7.4, 200 mM NaCl, excited at 360 nm
Protocol: The fluorescence emission measurements on cofluorons binding to the target tryptase were measured in 0.1M HEPES or 0.1M phosphate buffer at pH 7.4 in 96- or 384-well black plates using a Molecular Dynamics SpectraMax M5 plate reader. Cofluoron samples were excited at discrete wavelengths and the fluorescence emission was scanned across a range of wavelengths (between 400 and 750 nm). The fluorescence properties of cofluoron monomers and cofluoron multimers in the presence of 3 μM tryptase as well as in the absence of tryptase were measured and compared.
To test whether the cofluorons retained their fluorescence when binding to the target Tryptase, fluorescence were measured on the cofluoron multimers formed by mixing 6 μM T43 with 6 μM T34, T11, T35, and T37, respectively, in the presence or absence of 5 μM Tryptase, in aqueous 50 μM phosphate buffer (pH 7.4) containing 200 mM NaCl. Excitation was at 360 nm, and the portion of emission containing meaningful signal is between 400 nm and 550 nm.

[3] = biological target: human mast cell β2-tryptase (Homo sapiens, UniProt P20231); assay: Binding of cofluoron monomers and dimers to tryptase (IC50, affinity); conditions: 1:1 combination with T27 or T27F
[4] = 100 μM 2-hydroxy-3-naphthalenecarboxamide + 300 μM boronic acid, 0.1M phosphate pH 7.4, 50% DMSO, excited at 350 nm

Sequence of Tryptase (P20231 31-275): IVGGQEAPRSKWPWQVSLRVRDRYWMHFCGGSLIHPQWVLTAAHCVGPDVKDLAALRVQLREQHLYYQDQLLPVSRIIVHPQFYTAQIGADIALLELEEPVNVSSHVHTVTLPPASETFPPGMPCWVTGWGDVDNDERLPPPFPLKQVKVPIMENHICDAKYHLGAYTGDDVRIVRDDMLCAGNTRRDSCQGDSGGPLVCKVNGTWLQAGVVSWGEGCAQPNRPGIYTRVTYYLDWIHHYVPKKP
Sequence of human mast cell β2-tryptase (P20231 31-275): as above

increase in fluorescence emission intensity of 7,8-dihydroxy-4-methylcoumarin on forming oligomer with boronic acid partner ([1]; 100 μM 7,8-dihydroxy-4-methylcoumarin + 300 μM boronic acid, 0.1M phosphate pH 7.4, 50% DMSO, excitation 350 nm, emission 520 nm): did not provide any enhanced signal
SMILES: CN(C)c1ccc(B(O)O)cn1 [2-(N,N-dimethylamino)pyridine-5-boronic acid]

enhancement of fluorescent emission signals at 460 nm over monomer methyl 3,4,5-trihydroxybenzoate ([1]; 100 μM methyl 3,4,5-trihydroxybenzoate + 300 μM boronic acid, 0.1M phosphate pH 7.4, 50% DMSO, excited at 350 nm): about 7 fold
SMILES: OCc1ccccc1B(O)O [2-(hydroxymethyl)phenylboronic acid]

fluorescent emission intensity at 390 nm, fold higher than 3,4,5-trihydroxybenzamide alone ([1]; multimer with 3,4,5-trihydroxybenzamide, 100 μM each, 0.1M HEPES pH 7.9, 50% DMSO, excited at 340 nm): 10 fold
SMILES: OB(O)c1ccccc1F [2-fluorophenylboronic acid]

enhancement of fluorescent emission signal at 420 nm over monomer 2-hydroxy-3-naphthalenecarboxamide [1, 4]: more than 80 fold
SMILES: OB(O)c1cccnc1F [2-fluoropyridine-3-boronic acid]

fluorescent emission maximum ([1]; 2-hydroxy-3-naphthalenecarboxamide 100 μM, alone or with 300 μM boronic acids, 0.1M phosphate pH 7.4, 50% DMSO, excited at 350 nm): 500 nm | fluorescent emission maximum ([1]; 2-hydroxy-3-naphthalenecarboxamide alone or with boronic acids, phosphate pH 7.4, absence of DMSO, excited at 350 nm): about 510 nm
SMILES: NC(=O)c1cc2ccccc2cc1O [2-hydroxy-3-naphthalenecarboxamide, 2-Hydroxy-3-naphthalenecarboxamide]

SMILES: OB(O)c1cccnc1F [2b, 2-fluoropyridine-3-boronic acid]
fluorescence change on addition to linker element SL1 (2-hydroxy-3-naphthalenecarboxamide) [1]: stronger fluorescent signal, as well as a fluorescent emission wavelength shift to a lower wavelength | fluorescence change on addition to linker element SL3 (gallic acid ethanolamide) [1]: stronger fluorescent signal, as well as a fluorescent emission wavelength shift to a higher wavelength

SMILES: OB(O)c1cc(F)cc(F)c1 [2c, 3,5-difluorophenylboronic acid]
fluorescence change on addition to linker element SL1 (2-hydroxy-3-naphthalenecarboxamide) [1]: stronger fluorescent signal, as well as a fluorescent emission wavelength shift to a lower wavelength | fluorescence change on addition to linker element SL3 (gallic acid ethanolamide) [1]: stronger fluorescent signal, as well as a fluorescent emission wavelength shift to a higher wavelength

SMILES: OB(O)c1cc2ccccc2o1 [2d, benzofuran-2-boronic acid]
fluorescence change on addition to linker element SL1 (2-hydroxy-3-naphthalenecarboxamide) [1]: stronger fluorescent signal, as well as a fluorescent emission wavelength shift to a lower wavelength | fluorescence change on addition to linker element SL3 (gallic acid ethanolamide) [1]: stronger fluorescent signal, as well as a fluorescent emission wavelength shift to a higher wavelength

enhancement of fluorescent emission signal at 420 nm over monomer 2-hydroxy-3-naphthalenecarboxamide [1, 4]: about 40 fold | fluorescent signal enhancement of multimer with 2-hydroxy-3-naphthalenecarboxamide ([1]; 100 μM 2-hydroxy-3-naphthalenecarboxamide + 300 μM boronic acid, phosphate pH 7.4, absence of DMSO, excited at 350 nm): 30 fold
SMILES: OB(O)c1cc(F)cc(F)c1 [3,5-difluorophenylboronic acid]

SMILES: Cl.NCc1cccc(C2CCN(C(=O)/C=C/c3ccc(O)c(O)c3)CC2)c1 [T24, (E)-1-(4-(3-(aminomethyl)phenyl)piperidin-1-yl)-3-(3,4-dihydroxyphenyl)prop-2-en-1-one hydrochloride]
fluorescent staining of cells (human mast cell line): somewhat brighter staining

maximum fluorescence emission [2]: 380 RFU | wavelength of maximum emission [2]: 520 nm
SMILES: NCc1ccc(F)c(C2CCN(C(=O)c3cccc4cc(O)c(O)cc34)CC2)c1 [T27F]

fluorescent signal of dimer with T43 in the absence of tryptase (Tryptase; 6 μM each): hardly any fluorescent signal | fluorescent signal enhancement in the presence of tryptase versus in the absence of tryptase (Tryptase; pair with T43, 6 μM each, 5 μM Tryptase): 3 fold
SMILES: NCc1cccc(C2CCN(C(=O)/C=C/c3cccc(B(O)O)c3)CC2)c1 [T34]

SMILES: NCc1cccc(C2CCN(C(=O)c3cccc4sc(B(O)O)cc34)CC2)c1 [T37]
fluorescent signal enhancement of multimer formed with T43, among all multimers tested ([2]; 100 μM T43 + 100 μM partner, 0.1M phosphate pH 7.4 aqueous, excited at 360 nm): strongest fluorescent signal enhancements

fluorescent signal between 400 nm and 550 nm, monomer without boronic acid partner (Tryptase; 6 μM): essentially no fluorescent signal | emission peak ([2]; T43 100 μM, alone or with 100 μM boronic acid partners, 0.1M phosphate pH 7.4 aqueous, excited at 360 nm): 440 nm
SMILES: NCc1cccc(C2CCN(C(=O)/C=C/c3cc(O)c(O)c(O)c3)CC2)c1 [T43]

maximum fluorescence emission [2]: 194 RFU | wavelength of maximum emission [2]: 390 nm
SMILES: CN(Cc1ccccc1B(O)O)c1ccc(C(=O)N2CCC(c3cccc(CN)c3)CC2)cc1 [T147, (2-(((4-(4-(3-(aminomethyl)phenyl)piperidine-1-carbonyl)phenyl)(methyl)amino)methyl)phenyl)boronic acid]
affinity to human β-tryptase of dimer versus monomers [3]: higher affinity to human β-tryptase than either monomer

enhancement of fluorescent emission signal at 420 nm over monomer 2-hydroxy-3-naphthalenecarboxamide [1, 4]: about 40 fold
SMILES: OB(O)c1cc2ccccc2o1 [benzofuran-2-boronic acid]

fluorescent emission peak ([1]; methyl 3,4,5-trihydroxybenzoate 100 μM, alone or with 300 μM boronic acids, 0.1M phosphate pH 7.4, 50% DMSO, excited at 350 nm): about 390 nm
SMILES: COC(=O)c1cc(O)c(O)c(O)c1 [methyl 3,4,5-trihydroxybenzoate]
